The values below come from patent US6790859B2, “Reversing advanced glycosylation cross-links using heterocyclic-substituted thiazolium compounds” (Alteon Incorporated, priority 1998, dated 2004).

The subject of test [1] is IgG bound to the surface of RBC (AGE cross-links). Put plainly: Reversing AGE cross-links: RBC-IgG assay (IgG bound to RBC from streptozotocin-diabetic rats). The following applies: RBC of streptozotocin-diabetic rats incubated with test compound in PBS overnight at 37° C.; concentration not given. Type of test: cell-based, rat. How it is done: The activity of the compounds of the present invention to reverse AGE cross-links was evaluated in an in-vitro model, as follows. Blood was collected from streptozotocin-diabetic rats (6 to 8 wk diabetic) in heparinized tubes, centrifuged at 2500×g for 15 min. at […], and the plasma and buffy-coat layers aspirated off. The RBC were washed with PBS (ca. 5 ml PBS per ml blood) three times. Test compounds were dissolved in PBS and the pH adjusted to 7.0, if necessary. Two hundred microliters of washed RBC were added to 2 mL of test compound solution, and the mixture was incubated overnight at 37° C. […] After the overnight incubation, the reaction mixtures were centrifuged and the RBC pellets were washed three times with PBS, followed by diluting 1:30 in PBS. Immunoglobulin G (IgG) bound to the surface of the washed RBCs was then determined. Assay for RBC-IgG: The assay is performed in a Multiscreen-HA, 0.45 μm cellulose mixed esters membrane-sealed 96 well plate (Millipore MAHAS45). The membranes are first wet by filling the wells with 100 uL PBS, and the wells emptied by applying a vacuum to the Millititer vacuum manifold. Three hundred uL of Superblock (pre-warmed to 37° C.) is then added to each well and incubated at 37° C. for one hour. The Superblock is then removed from the wells by application of vacuum, then the wells are washed once with 300 ul of PBS-Tween (0.05%) and three times with PBS. The vacuum is then turned off. One hundred μl of PBS is then added to each well. Each RBC sample is gently vortexed, and 50 uL pipetted into the wells, in sextuplicate. The wells labeled A1-A3 are left for a reagent blank and wells A4-A6 reserved for an antibody blank. Vacuum is then applied to remove the buffer and the RBCs are washed once with PBS. Alkaline phosphatase-labeled rabbit-anti-rat IgG is diluted 1 to 25000 in PBS, and 50 μl is added to triplicate wells of each sample. PBS alone is added to the other three wells of each sample. These will serve as sample blanks to adjust for any endogenous alkaline phosphatase activity. The samples are allowed to stand at room temperature for two hours. The solution is then removed by application of vacuum and the red blood cells are washed with PBS-Tween twice, PBS twice and with TBS twice. The bottom of the plate is rinsed with distilled water and blotted dry with paper towels. To each well is then added 100 μl of p-nitrophenyl phosphate substrate (1 mg/ml in diethanolamine buffer pH 9.5), and the color is allowed to develop for two hours at 37° C. The solutions in each well are then transferred to a 96 well microtiter plate inside the vacuum manifold. One hundred μl of PBS to each well and vacuum applied again to transfer any remaining solution into the microtiter plate. The OD at 410 nm is then read in a Dynatech Plate reader (Sample filter 1 and Ref. filter 4). For data analysis, breaking activity (percent reversal) is expressed as the percent decrease in O.D. caused by incubation of RBC with the test compound compared to RBC incubated in PBS alone. Using the above assay, the following data was generated on the compounds of the present invention: […]

Test [2] deals with AGE-BSA cross-linked to rat tail tendon collagen (type 1). Nature of the test: Reversing collagen cross-links: AGE-BSA cross-linked to rat tail tendon collagen-coated plates. The format is biochemical. The note with it: 3 mM test compound, overnight at 37° C. How it is done:
In a further evaluation of the ability of compounds of the present invention to reverse AGE cross-links between a circulating protein and collagen, AGE-BSA was cross-linked to rat tail tendon collagen (type 1)-coated 96 well microtiter plates, and reversal of cross-linking was determined.
AGE-BSA preparation. AGE-BSA is prepared by incubation of a solution of BSA (400 mg/ml) in 0.4 M sodium phosphate buffer pH 7.4 with an equal volume of 400 mM glucose solution in the same buffer at 37° C. for 12 weeks. The pH of the incubation mixture is monitored weekly and adjusted to pH 7.4 if necessary. After 12 weeks, the AGE-BSA solution is dialyzed against PBS for 48 hours with 4 buffer changes. Protein concentration is determined by the micro-Lowry method.
Assay protocol. […] AGE-BSA was diluted in PBS to a concentration required to obtain maximum cross-linking as determined in a preliminary experiment. […]
Test compounds are dissolved in PBS and pH adjusted to 7.0 if necessary. […] The test compounds and PBS are also added to triplicate wells incubated with BSA, to obtain the blank readings. […]
The plate is washed with PBS-Tween, […] of Rabbit-anti-BSA antibody (1 to 4000 in PBS) is added to each well and the plate is incubated at room temperature for 60 min. […] Optical density is read at 410 nm with the sample filter set to “1” and the reference filter set to “5” on the Dynatech ELISA plate reader. […]

With `Cc1sc[n+](CC(=O)N2CCCCC2)c1C.[Br-]` [3-(2-(1-piperidinyl)-2-oxoethyl)-4,5-dimethylthiazolium bromide], the “Percent reversal (breaking activity: percent decrease in O.D. vs RBC incubated in PBS alone)” value in test [1] was 37%.
Turning to `Cc1sc[n+](CC(=O)N2CCCC2)c1C.[Br-]` [3-(2-(1-pyrrolidinyl)-2-oxoethyl)-4,5-dimethyl-thiazolium bromide], the “Percent reversal (breaking activity: percent decrease in O.D. vs RBC incubated in PBS alone)” value in test [1] stood at 63%.
Still for that read-out and setting: for `Cc1sc[n+](CC(=O)c2ccco2)c1C.[Br-]` [3-(2-(2-furanyl)-2-oxoethyl)-4,5-dimethylthiazolium bromide] the value was 76%; for `Cc1sc[n+](CC(=O)c2ccccn2)c1C.[Br-]` [3-(2-(2-pyridinyl)-2-oxoethyl)-4,5-dimethyl-thiazolium bromide], 27%.
With `Cc1sc[n+](CC(=O)c2cccs2)c1C.[Br-]` [3-(2-(2-thienyl)-2-oxoethyl)-4,5-dimethyl-thiazolium bromide], in test [1], the “Percent reversal (breaking activity: percent decrease in O.D. vs RBC incubated in PBS alone)” value amounted to 53%.
For the molecule `Cc1c(CCO)sc[n+]1CC(=O)c1cccs1.[Br-]` [3-(2-(2-thienyl)-2-oxoethyl)-4-methyl-5-hydroxyethylthiazolium bromide], in test [1], the “Percent reversal (breaking activity: percent decrease in O.D. vs RBC incubated in PBS alone)” value is on record as 24%.
As to `Cc1sc[n+](CC(=O)N2CCSCC2)c1C.[Br-]` [3-(2-(4-thiomorpholinyl)-2-oxoethyl)-4,5-dimethylthiazolium bromide], in test [1], the “Percent reversal (breaking activity: percent decrease in O.D. vs RBC incubated in PBS alone)” value is given as 47%.
Consider `Cc1sc[n+](CC(=O)N2CC(C)OC(C)C2)c1C.[Br-]` (stereo not drawn) [3-[2-(2,6-dimethyl-4-morpholinyl)-2-oxoethyl]-4,5-dimethylthiazolium bromide], for which the “Percent reversal (breaking activity: percent decrease in O.D. vs RBC incubated in PBS alone)” value in test [1] came to 38%.
Same read-out and setting: then `Cc1sc[n+](CC(=O)c2ccc3c(c2)CCC(=O)N3)c1C.[Br-]` [3-[2-(2-oxo-1,2,3,4-tetrahydro-6-quinolinyl)-2-oxoethyl]-4,5-dimethylthiazolium bromide], with 84%.
For `O=C(C[n+]1ccsc1)c1cc(-c2ccccc2)no1.[Br-]` [3-[2-(3-phenyl-5-isoxazolyl)-2-oxoethyl]-thiazolium bromide], the “reversal of AGE cross-links (percent breaking, decrease in OD of TTC-AGE-BSA wells vs PBS)” value in test [2] was determined as 15%. The “Percent reversal (breaking activity: percent decrease in O.D. vs RBC incubated in PBS alone)” value in test [1] is 38%.
On to `Cc1sc[n+](CC(=O)N2CCC(Cc3ccccc3)CC2)c1C.[Cl-]` [3-[2-(4-benzyl-1-piperidinyl)-2-oxoethyl]-4,5-dimethylthiazolium chloride], for which the “Percent reversal (breaking activity: percent decrease in O.D. vs RBC incubated in PBS alone)” value in test [1] stood at 70%.
